In brackets after ≈: the same amount, converted by molar mass.
Tests used:
[1] = test system: human oral epidermoid carcinoma KB cells; test: Growth inhibitory effect against KB cells (MTT, 72 h); format: cell-based; settings: absorbance 590 nm
Protocol: Growth Inhibitory Effect (IC50) of Compounds Obtained in Examples Against KB Cells Human oral epidermoid carcinoma KB cells (1×10^4 cells/ml) were transferred to a 96-well microwell plate at 0.1 ml per well and subjected to stationary culture at 37° C. with 5% CO2 for 24 hours. To the resulting culture was added a 10% MEM (Nissui Junyaku) solution of a compound of an Example, followed by stationary culture at 37° C. with 5% CO2 for 72 hours. The culture broth was then removed using a micropipette. 0.1 ml of a 10% minimal essential medium solution containing 3-(4,5-dimethylthiazol-2-yl)-2,5-diphenyl-2H-tetrazolium bromide (Dojin Kagaku) (1.0 mg/ml) was added, followed by cultivation at 37° C. for 4 hours. 0.1 ml of a 10% sodium dodecylsulfate (Wako Pure Chemical) was then added, followed by cultivation at 37° C. for 24 hours.

CDF-1 mice = test: Acute toxicity test in mice, single intraperitoneal administration; format: in vivo; settings: single i.p., female CDF-1 mice, 7 days observation
Protocol: Acute Toxicity Test with Compounds of Example in Mice
0.2 ml of a solution of a compound of the Example in physiological saline was intraperitoneally administered once to female CDF-1 mice (5 weeks in age, 5 animals per group). Observation was conducted for 7 days following the administration.

Sarcoma 180 cells [2] = test: Antitumor activity on Sarcoma 180 cells in ICR mice, oral; format: in vivo; settings: 0.3 mg/mouse, 9 times, tumor weight after 21 days
Protocol: (§1) Antitumor Activity of Compounds Obtained in Examples on Sarcoma 180 Cells
(1) Sarcoma 180 cells were subcutaneously transplanted to the side of the back of ICR mice (5 mice per group) at 1×10^6 cells per animal. 8, 9, 10, 13, 14, 15, 16, 17 and 20 days after the transplantation (a total of 9 times), the compound of Example 1, dissolved in physiological saline, was orally administered (0.3 mg/mouse). After 21 days, the tumor tissue was excised and weighed.

Sarcoma 180 cells [3] = test: Antitumor activity on Sarcoma 180 cells in ICR mice, intraperitoneal; format: in vivo; settings: 0.1 mg/mouse, 8 times, tumor weight after 21 days
Protocol: as §1
(2) Sarcoma 180 cells were subcutaneously transplanted to the side of the back of ICR mice (5 mice per group) at 1×10^6 cells per animal. 8, 9, 12, 13, 15, 16, 19 and 20 days after the transplantation (a total of 8 times), a compound of an Example, dissolved in physiological saline, was intraperitoneally administered (0.1 mg/mouse). After 21 days, the tumor tissue was excised and weighed.

[4] = cited from earlier work

| SMILES | IC50 [1] | also measured |
| --- | --- | --- |
| CCCCCCCCCCCCCCCCCCOCC(COCCOCC[n+]1ccn(CCCCCC(=O)[O-])c1)Oc1ncccn1 (stereo not shown) [Example 1, 6-[3-[2-[2-[3-octadecyloxy-2-(pyrimidin-2-yloxy)-propoxy]ethoxy]ethyl]imidazolio-1yl]hexanoate] | 0.16 µg/mL (≈ 0.237 µM) | Number of mice that died/number of subject mice (CDF-1 mice; 50 mg/kg): 0/5; Growth inhibition ratio (1-T/C %) (Sarcoma 180 cells [2]): 65% |
| CCCCCCCCCCCCCCCCCCOCC(COCCOCC[n+]1ccn(CCCCCC(=O)[O-])c1)OCC(C)=O (stereo not shown) [Example 3] | 0.32 µg/mL (≈ 0.49 µM) | Number of mice that died/number of subject mice (CDF-1 mice; 50 mg/kg): 0/5 |
| CCCCCCCCCCCCCCCCCCOCC(COCCOCC[N+](C)(C)CCCCCC(=O)[O-])OCC(C)=O (stereo not shown) [Example 5, 6-[N,N-dimethyl-N-[2-[2-[3-octadecyloxy-2-(2-oxopropoxy)propoxy]ethoxy]ethyl]ammonio]hexanoate] | 2.5 µg/mL (≈ 3.97 µM) | Number of mice that died/number of subject mice (CDF-1 mice; 50 mg/kg): 0/5 |
| CCCCCCCCCCCCCCCCCCOCC(COCCOCC[n+]1ccn(CC(=O)[O-])c1)OCCCCCC (stereo not shown) [Example 6, 2-[3-[2-[2-[2-hexyloxy-3-octadecyloxypropoxy]-ethoxy]ethyl]imidazolio-1-yl]acetate] | 2.5 µg/mL (≈ 4 µM) | Number of mice that died/number of subject mice (CDF-1 mice; 50 mg/kg): 0/5 |
| CCCCCCCCCCCCCCCCCCOCC(COCCOCC[n+]1ccn(CCCCCCCCC(=O)[O-])c1)Oc1ncccn1 (stereo not shown) [Example 7] | 0.16 µg/mL (≈ 0.223 µM) |  |
| CCCCCCCCCCCCCCCCCCOCC(COCCOCC[n+]1ccn(CCCC(=O)[O-])c1)Oc1ncccn1 (stereo not shown) [Example 8, 4-[3-[2-[2-[3-octadecyloxy-2-(pyrimidin-2-yloxy)-propoxy]ethoxy]ethyl]imidazolio-1-yl]butyrate] | 1.25 µg/mL (≈ 1.93 µM) | Growth inhibition ratio (1-T/C %) (Sarcoma 180 cells [3]): 66%; Number of mice that died/number of subject mice (CDF-1 mice; 100 mg/kg): 0/5 |
| CCCCCCCCCCCCCCCCCCOCC(COCCOCC[N+](C)(C)CCCCCC(=O)[O-])Oc1ncccn1 (stereo not shown) [Example 9, 6-[N,N-dimethyl-N-[2-[2-[3-octadecyloxy-2-(pyrimidin-2-yloxy)propoxy]ethoxy]ethyl]ammonio]-hexanoate] | 1.25 µg/mL (≈ 1.92 µM) | Number of mice that died/number of subject mice (CDF-1 mice; 100 mg/kg): 0/5 |
| CCCCCCCCCCCCCCCCCCOCC(COCCOCC[n+]1ccn(CCCCc2ccc(C(=O)[O-])cc2)c1)Oc1ncccn1 (stereo not shown) [Example 10, 4-[4-[3-[2-[2-[3-octadecyloxy-2-(pyrimidin-2-yloxy)-propoxy]ethoxy]ethyl]imidazolio-1-yl]butyl]benzoate] | 0.32 µg/mL (≈ 0.434 µM) | Number of mice that died/number of subject mice (CDF-1 mice; 50 mg/kg): 0/5 |
| CCCCCCCCCCCCCCCCCCOCC(COCCOCC[n+]1ccn(CCCCC2CCC(C(=O)[O-])CC2)c1)Oc1ncccn1 (stereo not shown) [Example 11, 4-[4-[3-[2-[2-[3-octadecyloxy-2-(pyrimidin-2-yloxy)propoxy]ethoxy]ethyl]imidazolio-1-yl]butyl]-cyclohexylcarboxylate] | 0.32 µg/mL (≈ 0.431 µM) |  |
| CCCCCCCCCCCCCCCCCCOCC(COCCOCC[n+]1cccc(CCC(=O)[O-])c1)Oc1ncccn1 (stereo not shown) [Example 12, 3-[1-[2-[2-[3-octadecyloxy-2-(pyrimidin-2-yloxy)-propoxy]ethoxy]ethyl]pyridinio-3-yl]propionate] | 0.63 µg/mL (≈ 0.978 µM) | Growth inhibition ratio (1-T/C %) (Sarcoma 180 cells [3]): 81%; Number of mice that died/number of subject mice (CDF-1 mice; 100 mg/kg): 0/5 |
| CCCCCCCCCCCCCCCCCCOCC(COCCOCC[n+]1ccn(CCCCCC(=O)OC)c1)Oc1ncccn1.[Cl-] (stereo not shown) [Example 14, 1-(5-methoxycarbonylpentyl)-3-[2-[2-[3-octadecyloxy-2-(pyrimidin-2-yloxy)propoxy]ethoxy]-ethyl]imidazolium chloride] | 0.32 µg/mL |  |
| CCCCCCCCCCCCCCCCCCOCC(COCCOCCOCC[n+]1ccn(CCCCCC(=O)[O-])c1)Oc1ncccn1 (stereo not shown) [Example 20, 6-[3-[2-[2-[2-[3-octadecyloxy-2-(pyrimidin-2-yloxy)propoxy]ethoxy]ethoxy]ethyl]imidazolio-1-yl]-hexanoate] | 0.32 µg/mL (≈ 0.445 µM) | Number of mice that died/number of subject mice (CDF-1 mice; 100 mg/kg): 0/5 |
| CCCCCCCCCCCCCCCCCCOCC(COCCOCCOCC[n+]1ccn(CCCC(=O)[O-])c1)Oc1ncccn1 (stereo not shown) [Example 21, 4-[3-[2-[2-[2-[3-octadecyloxy-2-(pyrimidin-2-yloxy)propoxy]ethoxy]ethoxy]ethyl]imidazolio-1-yl]-butyrate] | 0.63 µg/mL (≈ 0.912 µM) | Number of mice that died/number of subject mice (CDF-1 mice; 100 mg/kg): 0/5 |
| CCCCCCCCCCCCCCCCCCOCC(COP(=O)([O-])OCC[N+](C)(C)C)OC (stereo not shown) [phospholipid represented by formula (II)] |  | antitumor activities ([4]; Anticancer Research, 1, 345 (1981)): possess antitumor activities; adverse effects ([4]; clinical trial limitation, similarity to PAF): various adverse effects such as bronchostenosis, platelet aggregation and hypotension |

More lines, main results first:

| IC50 [1] | SMILES | also measured |
| --- | --- | --- |
| 0.63 µg/mL | CCCCCCCCCCCCCCCCCCOCC(COCCOCC[n+]1ccn(CCC(C)(C)C(=O)OCC)c1)Oc1ncccn1 (stereo not shown) [Example 15, 1-(3-ethoxycarbonyl-3-methyl)butyl-3-[2-[2-[3-octadecyloxy-2-(pyrimidin-2-yloxy)propoxy]-ethoxy]ethylimidazolium chloride] |  |
| 0.63 µg/mL (≈ 0.933 µM) | CCCCCCCCCCCCCCCCCCOCC(COCCOCC[n+]1ccn(CCC(C)(C)C(=O)[O-])c1)Oc1ncccn1 (stereo not shown) [Example 16, 2,2-dimethyl-4-[3-[2-[2-[3-octadecyloxy-2-(pyrimidin-2-yloxy)propoxy]ethoxy]ethyl]imidazolio-1-yl]butyrate] |  |
| 0.32 µg/mL (≈ 0.472 µM) | CCCCCCCCCCCCCCCCCCOCC(COCCOCC[N+]1(CCCCCC(=O)[O-])CCCC1)Oc1ncccn1 (stereo not shown) [Example 17, 6-[1-[2-[2-[3-octadecyloxy-2-(pyrimidin-2-yloxy)-propoxy]ethoxy]ethyl]pyrrolidinio-1-yl]hexanoate] |  |
| 0.32 µg/mL | CCCCCCCCCCCCCCCCCCOCC(COCCOCC[n+]1ccn(CCCOC(=O)CCC(=O)[O-])c1)Oc1ncccn1 (stereo not shown) [Example 18, 3-[3-[2-[2-[3-octadecyloxy-2-(pyrimidin-2-yloxy)-propoxy]ethoxy]ethyl]imidazolio-1-yl]propyl succinate] |  |
| 0.63 µg/mL | CCCCCCCCCCCCCCCCCCOCC(COCCOCC[n+]1cccc(CCCOC(=O)CCC(=O)[O-])c1)Oc1ncccn1 (stereo not shown) [Example 19, 3-[1-[2-[2-[3-octadecyloxy-2-(pyrimidin-2-yloxy)-propoxy]ethoxy]ethyl]pyridinio-3-yl]propyl succinate] |  |
| 0.63 µg/mL (≈ 1 µM) | CCCCCCCCCCCCCCCCCCOCC(COCCCC[n+]1cccc(CCC(=O)[O-])c1)Oc1ncccn1 (stereo not shown) [Example 22, 3-[1-[4-[3-octadecyloxy-2-(pyrimidin-2-yloxy)-propoxy]butyl]pyridinio-3-yl]propionate] |  |
| 0.32 µg/mL (≈ 0.488 µM) | CCCCCCCCCCCCCCCCCCOCC(COCCCC[n+]1cccc(CCCCC(=O)[O-])c1)Oc1ncccn1 (stereo not shown) [Example 23, 5-[1-[4-[3-octadecyloxy-2-(pyrimidin-2-yloxy)-propoxy]butyl]pyridinio-3-yl]pentanoate] |  |
| 0.32 µg/mL (≈ 0.496 µM) | O=C([O-])CCCn1cc[n+](CCOCCOCC(COCCCCCCCCCCCCC2CCCCC2)Oc2ncccn2)c1 (stereo not shown) [Example 24, 4-[3-[2-[2-[3-(12-cyclohexyldodecyloxy)-2-(pyrimidin-2-yloxy)propoxy]ethoxy]ethyl]imidazolio-1-yl]butyrate] |  |
| 0.16 µg/mL (≈ 0.238 µM) | O=C([O-])CCCCCn1cc[n+](CCOCCOCC(COCCCCCCCCCCCCC2CCCCC2)Oc2ncccn2)c1 (stereo not shown) [Example 25, 6-[3-[2-[2-[3-(12-cyclohexyldodecyloxy)-2-(pyrimidin-2-yloxy)propoxy]ethoxy]ethyl]imidazolio-1-yl]hexanoate] |  |

— patent publication US5081245A, “Carboxylic acid derivatives” (Takeda Chemical Industries, Ltd., priority 1988, dated 1992)
